Assay results from patent US20160310619A1, “SCREENING METHODS FOR ACETYLCHOLINE RELATED BIOACTIVE MATERIALS USING INHERITED COLOR PREFERENCE OF FISH” (GENOMIC DESIGN BIOENGINEERING COMPANY, priority 2014, published 2016).

Key:
zebrafish [1] = assay: Color preference of zebrafish in blue/yellow color maze after alcohol; type: in vivo, zebrafish (Danio rerio); details: zebrafish 25 days after birth; alcohol 0.5%, 1%, 2% in egg water vs 0% comparison group; FIG. 7
Text: A method for detecting bioactive materials using the innate color preference instinct of fish based on the color recognition and color preference results according to the visual recognition of zebrafish was developed. In order to identify whether a method for screening a bioactive material according to the present invention may effectively detect candidate materials, alcohol was used as an example of the bioactive material to identify whether the color preference of zebrafish is changed between before applied to zebrafish and after applied to the zebrafish. This utilizes the common sense that humans' recognition ability is changed depending on the blood alcohol concentration.
A specific experimental method was as follows. A straight line-shaped screening device (color maze) with a combination of blue and yellow was prepared, and 40 zebrafish, 25 days after birth, were used. Every 10 of the fish were put in each straight-line groove, egg water of 5 ml was used, and then, video-recording was performed for 30 minutes using a video recorder. As predicted, many of the zebrafish moved to blue that is a preferred color of zebrafish. […] The number of zebrafish in each color section was counted through the video recorded over five times in total.

zebrafish [2] = assay: Screening for acetylcholine neurotransmission-related materials by innate color preference (blue/yellow color maze); type: in vivo, zebrafish (Danio rerio); details: acetylcholinesterase inhibitors vs egg water; five days old fish; FIG. 9(A)-(C)
Text: For this experiment, a straight line-shaped screening device (color maze) was used as a screening device, and blue and yellow that most differ in color preference were used. Further, five days old young fish born from the same male and female were used in the channels of the device and divided into a comparison group and an experimental group in this experiment. The number of entities used in the comparison group and the experimental group was 10 per channel. The final volume of egg water used in each channel was fitted into 4 mL. Considering the direction for illumination and time of transmission of drug to nerves, video-recording was performed for 30 minutes, and then, sleeves were changed. Then, video-recording was resumed for 30 minutes. The number of entities in each of the sections with different colors was counted every two minutes and was processed statistically. As statistics, the significance of the comparison group and the experimental group was identified through the T-test (SPSS, USA).
For acetylcholine (Sigma), tacrine (Sigma), galantamine (Sigma), and caffeine (Sigma) as reagents administered to the experimental group, concentrates including acetylcholine of 1000 mM, tacrine of 20 mM, and galantamine of 10 mM were prepared using third distilled water. 10 entities, five days after fertilization, were put in the channel of each color maze, and egg water of 4 mL was used. […]

| SMILES | ability of distinguishing colors (number of zebrafish in each color section) (zebrafish [1]) | change in color preference (number of young zebrafish in blue and yellow sections) (zebrafish [2]) |
| --- | --- | --- |
| CCO [alcohol] | as the alcohol concentration increases, the number of zebrafish that can distinguish colors decreases | – |
| Nc1c2c(nc3ccccc13)CCCC2 [tacrine, 1,2,3,4-tetrahydro-9-acridine amine] | – | moved to yellow that is their avoided color |
